# Test system: V. radiata
# Conditions: AgNO3 0-2 mM bolus doses, day 4 to day 8
# Description: For two days beans were allowed to germinate in the dark at 20° C. as described above. On day 3, the plate was incubated at 20° C./12 hr photoperiod and 100% humidity, and 500 μL of distilled water were added to each well. On day 5 another 750 μL of distilled water were added and the cover of the well plate was removed. The EC50 was determined as the concentration at which the change in mass of the seedling was half that of untreated V. radiata.
compound,measurement,value
"O=[N+]([O-])[O-].[Ag+] [AgNO3, silver nitrate]",change in mass of V. radiata,decreased significantly in a dose response fashion

# Reference: patent publication US10798939B2, “Cellulose binding domain chitosan seed coating” (priority 2015, dated 2020)
